Reference: US10738062B2, “Chromane-substituted tetracyclic compounds and uses thereof for the treatment of viral diseases” (Merck Sharp & Dohme Corp., priority 2016, dated 2020)
Like-named read-outs stand apart in the source and are kept apart here.

Legend:
Design in all cases: species or system Hepatitis C virus
Conditions in all cases: replicon RNA by real time PCR, day 3
[1] = test system: HCV replicon 1A; assay: Cell-based HCV replicon assay (Replicon Assay A), replicon 1A
Experimental: (§1) To measure cell-based anti-HCV activity of compounds of the present invention, two complimentary assays were employed using various replicons. In the first assay (“Replicon Assay A”), replicon cells were seeded at 2000 cells/well in 384-well 384-well flat bottom tissue culture treated clear bottom plate (Corning 3707) in the presence of the test compound. Various concentrations of test compound, typically in 10 serial dilutions, were added to the assay mixture, with the starting concentration ranging from 333.3 nM to 1.667 nM. The final concentration of DMSO was 0.5%. Fetal bovine serum was 5%, in the assay media. Cells were harvested on day 3 by removing media and washing the cells with a suitable wash buffer. The cells were lysed with the addition of 1× Qiagen lysis buffer (Cat #1062731). The replicon RNA level was measured using real time PCR (TaqMan® EZ RT-PCR, Applied Biosystems 403028) with the following primers and probes: […]
(§2) Cyclophilin RNA was used as endogenous control and was amplified in the same reaction as NS5B (multiplex PCR). The real-time RT-PCR reactions were run on ABI PRISM 7900HT Sequence Detection System using the following program: 50° C. for 2 minutes, 60° C. for 30 minutes, 95° C. for 5 minutes, 40 cycles of 94° C. for 20 sec, 55° C. for 1 minutes.
(§3) The amount of HCV replicon RNA per cell was quantified using a linear regression curve for a known nanogram (ng) amount of HCV replicon total RNA. This was established by plotting the Cycle Threshold values (Ct) from the Neo probe and primer set versus the log (ng) for each HCV replicon total RNA standard. The amount of HCV RNA for each replicon sample was calculated by taking the sample's Ct value, minus the line intercept, divided by the slope of the line. Similarly, the amount of Cyclophilin mRNA per cell was also quantified using a linear regression curve for a known nanogram (ng) amount of HCV replicon total RNA. Again, this was established by plotting the Cycle Threshold values (Ct) from the Cyclophilin probe and primer set versus the log (ng) for each HCV replicon total RNA standard.
(§4) The real-time RT-PCR reactions were run on ABI PRISM 7900HT or Viia7 Sequence Detection System using the following program: 48° C. for 30 minutes, 95° C. for 10 minutes, 40 cycles of 95° C. for 15 sec, 60° C. for 1 minutes. The 50% effective concentration (EC50) was the drug concentration necessary to achieve an increase in the cycle threshold (CT) of 1 over the projected baseline CT.
(§5) Data was obtained for various compounds of the present invention using the methods described in the Example above, and is presented in the table immediately below. EC50 data for replicons 1A, 1AY93H and 2B were obtained using Replicon Assay A and EC50 data for replicon 1B was obtained using Replicon Assay B.

[2] = test system: HCV replicon 2B; assay: Cell-based HCV replicon assay (Replicon Assay A), replicon 2B
Experimental: as §1, §2, §3, §4, §5

[3] = test system: HCV replicon 1A Y93H; assay: Cell-based HCV replicon assay (Replicon Assay A), replicon 1AY93H
Experimental: as §1, §2, §3, §4, §5

[4] = read-out: EC50 replicon 2B, Replicon Assay A
[5] = read-out: EC50 replicon 1A Y93H, Replicon Assay A

Row | Structure (SMILES) | EC50 ([1]; Hepatitis C virus, 72 h) [nM] | EC50 [2, 4] [nM] | EC50 [3, 5] [nM] | EC50 [1] [nM] | EC50 ([2]; Hepatitis C virus, 72 h, read-out: EC50 replicon 2B, Replicon Assay A) [nM] | EC50 ([3]; Hepatitis C virus, 72 h, read-out: EC50 replicon 1A Y93H, Replicon Assay A) [nM]
1 | COC(=O)NC(C(=O)N1CCC[C@H]1c1ncc(-c2ccc3c(c2)cc2n3C(c3ccc4c(c3)OCCC4)Oc3cc(-c4cnc([C@@H]5CCCN5C(=O)[C@@H](NC(=O)OC)C(C)C)[nH]4)cc(F)c3-2)[nH]1)C1C[C@@H](C)O[C@H](C)C1 (single isomer, unassigned) [Compound 77] | 0.0015 | 0.099 | 0.496 |  |  | 
2 | COC(=O)NC(C(=O)N1CCC[C@H]1c1ncc(-c2ccc3c(c2)cc2n3C(c3ccc4c(c3)OC(C)CC4)Oc3cc(-c4cnc([C@@H]5CCCN5C(=O)[C@@H](NC(=O)OC)C(C)C)[nH]4)cc(F)c3-2)[nH]1)C1C[C@@H](C)O[C@@H](C)C1 (single isomer, unassigned) [Compound 57] | 0.002 | 0.33 | 0.685 |  |  | 
3 | COC(=O)NC(C(=O)N1CCC[C@H]1c1ncc(-c2ccc3c(c2)cc2n3C(c3ccc4c(c3)OC(C)CC4)Oc3cc(-c4cnc([C@@H]5CCCN5C(=O)[C@@H](NC(=O)OC)C(C)C)[nH]4)cc(F)c3-2)[nH]1)C1C[C@@H](C)O[C@@H](C)C1 (single isomer, unassigned) [Compound 58] |  | 0.403 | 1.09 | 0.0022 |  | 
4 | COC(=O)NC(C(=O)N1CCC[C@H]1c1ncc(-c2ccc3c(c2)cc2n3C(c3ccc4c(c3)OCCC4)Oc3cc(-c4cnc([C@@H]5CCCN5C(=O)[C@@H](NC(=O)OC)C(C)C)[nH]4)cc(F)c3-2)[nH]1)C1C[C@@H](C)O[C@@H](C)C1 (single isomer, unassigned) [Compound 75] | 0.0018 | 0.296 | 1.27 |  |  | 
5 | COC(=O)NC(C(=O)N1CCC[C@H]1c1ncc(-c2ccc3c(c2)cc2n3C(c3ccc4c(c3)OC(C)CC4)Oc3cc(-c4cnc([C@@H]5CCCN5C(=O)[C@@H](NC(=O)OC)C(C)C)[nH]4)cc(F)c3-2)[nH]1)C1CCOC(C)(C)C1 (single isomer, unassigned) [Compound 62] |  | 0.253 | 0.516 | 0.0019 |  | 
6 | COC(=O)N[C@H](C(=O)N1CCC[C@H]1c1ncc(-c2cc(F)c3c(c2)OC(c2ccc4c(c2)CCC(C)(C)O4)n2c-3cc3cc(-c4cnc([C@@H]5CCCN5C(=O)[C@@H](NC(=O)OC)C(C)C)[nH]4)ccc32)[nH]1)C(C)C (single isomer, unassigned) [Compound 21] | 0.0015 | 3.56 | 7.11 |  |  | 
7 | COC(=O)NC(C(=O)N1CCC[C@H]1c1ncc(-c2ccc3c(c2)cc2n3C(c3ccc4c(c3)CCCO4)Oc3cc(-c4cnc([C@@H]5CCCN5C(=O)[C@@H](NC(=O)OC)C(C)C)[nH]4)cc(C)c3-2)[nH]1)C1C[C@@H](C)O[C@@H](C)C1 (single isomer, unassigned) [Compound 84] |  | 0.193 | 0.674 | 0.002 |  | 
8 | COC(=O)N[C@H](C(=O)N1CCC[C@H]1c1ncc(-c2cc(F)c3c(c2)OC(c2ccc4c(c2)OCCC4C)n2c-3cc3cc(-c4cnc([C@@H]5CCCN5C(=O)[C@@H](NC(=O)OC)C(C)C)[nH]4)ccc32)[nH]1)C(C)C (single isomer, unassigned) [Compound 7] | 0.0017 | 1.59 | 2.18 |  |  | 
9 | COC(=O)N[C@H](C(=O)N1CCC[C@H]1c1ncc(-c2cc(F)c3c(c2)OC(c2ccc4c(c2)CC2CC2(C)O4)n2c-3cc3cc(-c4cnc([C@@H]5CCCN5C(=O)[C@@H](NC(=O)OC)C(C)C)[nH]4)ccc32)[nH]1)C(C)C (single isomer, unassigned) [Compound 25] | 0.0037 | 3.83 | 4.67 |  |  | 
10 | COC(=O)N[C@H](C(=O)N1CCC[C@H]1c1ncc(-c2cc(F)c3c(c2)OC(c2ccc4c(c2)OCCC4(F)F)n2c-3cc3cc(-c4cnc([C@@H]5CCCN5C(=O)[C@@H](NC(=O)OC)C(C)C)[nH]4)ccc32)[nH]1)C(C)C (single isomer, unassigned) [Compound 19] | 0.0014 | 0.767 | 4.2 |  |  | 
11 | COC(=O)N[C@H](C(=O)N1CCC[C@H]1c1ncc(-c2cc(F)c3c(c2)OC(c2ccc4c(c2)OCCC42CC2)n2c-3cc3cc(-c4cnc([C@@H]5CCCN5C(=O)[C@@H](NC(=O)OC)C(C)C)[nH]4)ccc32)[nH]1)C(C)C (single isomer, unassigned) [Compound 15] | 0.0012 | 1.31 | 2.15 |  |  | 
12 | COC(=O)N[C@H](C(=O)N1CCC[C@H]1c1ncc(-c2cc(F)c3c(c2)OC(c2ccc4c(c2)CCCO4)n2c-3cc3cc(-c4cnc([C@@H]5CCCN5C(=O)[C@@H](NC(=O)OC)C5CCOCC5)[nH]4)ccc32)[nH]1)C(C)C (single isomer, unassigned) [Compound 36] |  | 0.416 | 0.426 | 0.0021 |  | 
13 | COC(=O)N[C@H](C(=O)N1CCC[C@H]1c1ncc(-c2cc(F)c3c(c2)OC(c2ccc4c(c2)CCCO4)n2c-3cc3cc(-c4cnc([C@@H]5CCCN5C(=O)[C@@H](NC(=O)OC)C(C)C)[nH]4)ccc32)[nH]1)C(C)C (single isomer, unassigned) [Compound 23] | 0.002 | 5.17 | 2.62 |  |  | 
14 | COC(=O)NC(C(=O)N1CCC[C@H]1c1ncc(-c2ccc3c(c2)cc2n3C(c3ccc4c(c3)CCC(C)O4)Oc3cc(-c4cnc([C@@H]5CCCN5C(=O)[C@@H](NC(=O)OC)C(C)C)[nH]4)cc(F)c3-2)[nH]1)C1C[C@@H](C)O[C@@H](C)C1 (single isomer, unassigned) [Compound 56] |  | 0.288 | 0.114 | 0.0024 |  | 
15 | COC(=O)N[C@H](C(=O)N1CCC[C@H]1c1ncc(-c2cc(F)c3c(c2)OC(c2ccc4c(c2)OC(C)(C)C4)n2c-3cc3cc(-c4cnc([C@@H]5CCCN5C(=O)[C@@H](NC(=O)OC)C(C)C)[nH]4)ccc32)[nH]1)C(C)C (single isomer, unassigned) [Compound 27] | 0.0014 | 1.48 | 1.08 |  |  | 
16 | COC(=O)NC(C(=O)N1CCC[C@H]1c1ncc(-c2ccc3c(c2)cc2n3C(c3ccc4c(c3)CCC(C)O4)Oc3cc(-c4cnc([C@@H]5CCCN5C(=O)[C@@H](NC(=O)OC)C(C)C)[nH]4)cc(F)c3-2)[nH]1)C1C[C@@H](C)O[C@@H](C)C1 (single isomer, unassigned) [Compound 55] | 0.0019 | 1.26 | 1.86 |  |  | 
17 | COC(=O)N[C@H](C(=O)N1CCC[C@H]1c1ncc(-c2cc(F)c3c(c2)OC(c2ccc4c(c2)OCCC42CC2)n2c-3cc3cc(-c4cnc([C@@H]5CCCN5C(=O)[C@@H](NC(=O)OC)C(C)C)[nH]4)ccc32)[nH]1)C(C)C (single isomer, unassigned) [Compound 16] |  | 0.038 | 0.031 | 0.002 |  | 
18 | COC(=O)N[C@H](C(=O)N1CCC[C@H]1c1ncc(-c2cc(F)c3c(c2)OC(c2ccc4c(c2)OCCC4)n2c-3c(F)c3cc(-c4cnc([C@@H]5CCCN5C(=O)[C@@H](NC(=O)OC)C5CCOCC5)[nH]4)ccc32)[nH]1)C(C)C (single isomer, unassigned) [Compound 91] | 0.0011 | 0.123 | 0.893 |  |  | 
19 | COC(=O)NC(C(=O)N1[C@@H]2C[C@@H]2C[C@H]1c1ncc(-c2ccc3c(c2)cc2n3C(c3ccc4c(c3)OCCC4)Oc3cc(-c4cnc([C@@H]5CCCN5C(=O)[C@@H](NC(=O)OC)C(C)C)[nH]4)cc(F)c3-2)[nH]1)C1CCO[C@H](C)C1 (single isomer, unassigned) [Compound 81] | 0.002 | 0.27 | 0.188 |  |  | 
20 | COC(=O)NC(C(=O)N1CCC[C@H]1c1ncc(-c2ccc3c(c2)cc2n3C(c3ccc4c(c3)CCCO4)Oc3cc(-c4cnc([C@@H]5CCCN5C(=O)[C@@H](NC(=O)OC)C(C)C)[nH]4)cc(C)c3-2)[nH]1)C1C[C@@H](C)O[C@@H](C)C1 (single isomer, unassigned) [Compound 83] | 0.0039 |  |  |  | 0.16 | 0.594
21 | COC(=O)NC(C(=O)N1CCC[C@H]1c1ncc(-c2ccc3c(c2)cc2n3C(c3ccc4c(c3)OCCC4)Oc3cc(-c4cnc([C@@H]5CCCN5C(=O)[C@@H](NC(=O)OC)C(C)C)[nH]4)cc(C)c3-2)[nH]1)C1C[C@@H](C)O[C@@H](C)C1 (single isomer, unassigned) [Compound 85] | 0.0027 | 0.07 | 0.575 |  |  | 
